Measured values reported in PubChem BioAssay AID1189 (EPA DSSTox, 2008).
Activity calls are given as the source filed them.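 The calls were made as follows: active = a tumor-causing dose value with its tumor site reported for any sex and species group of a rodent or other animal cancer study; inconclusive = only studies judged inadequate by the national testing program; inactive = tested in at least one study, none positive.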

experiment: DSSTox (CPDBAS) Carcinogenic Potency Database Summary SingleCellCall Results; conditions: animal chronic carcinogenicity bioassays, CPDB summary call
Procedure, shortened: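 Literature-derived summary: each substance receives an overall carcinogenic/non-carcinogenic category drawn from long-term bioassays in rats, mice, hamsters, dogs or primates, using the most positive sex-species experiment and minimal evidence criteria.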

**Q.** Which outcome does the source give for `CC1=C(C(=O)OC(C)C)C(c2cccc([N+](=O)[O-])c2)C(C(=O)OC2CN(C(c3ccccc3)c3ccccc3)C2)=C(N)N1` (configuration not stated) here?
**A.** The outcome was “inactive; active”.

**Q.** For `O=c1cc[nH]c(=O)[nH]1`, which outcome is on record?
**A.** Its outcome is “active; inactive”.

**Q.** Which outcome does the source give for `CC(C)OC(=O)Nc1ccccc1` here?
**A.** Its outcome is “inactive; active”.

**Q.** Which outcome does the source give for `NNC(N)=O` here?
**A.** Its outcome is “active; inactive”.

**Q.** With `CC1=C(C(=O)OCCN(Cc2ccccc2)c2ccccc2)C(c2cccc([N+](=O)[O-])c2)C(P2(=O)OCC(C)(C)CO2)=C(C)N1` (configuration not stated) as the compound, how does the outcome read?
**A.** The outcome was “inactive”.

**Q.** With `CCCCC(C)(O)C/C=C/[C@H]1[C@H](O)CC(=O)[C@@H]1CCCCCCC(=O)OC` (some centres not stated) as the compound, how does the outcome read?
**A.** The outcome was “inactive; active”.

**Q.** Which outcome does the source give for `NC(=S)C(N)=S` here?
**A.** The outcome was “inactive”.

**Q.** Which outcome does the source give for `Cn1cc[nH]c1=S` here?
**A.** Its outcome is “active; inactive”.

**Q.** For `O=CNc1nc(-c2ccc([N+](=O)[O-])o2)cs1`, which outcome is on record?
**A.** Its outcome is “active”.

**Q.** With `COc1ccc(C)cc1N` as the compound, how does the outcome read?
**A.** Its outcome is “active”.

**Q.** For `Nc1ccc2c(c1)oc1ccccc12`, which outcome is on record?
**A.** The outcome was “active”.

**Q.** Which outcome does the source give for `c1ccc2sc(SNC3CCCCC3)nc2c1` here?
**A.** Its outcome is “inactive”.

**Q.** For `C=C(C)C(=O)Nc1ccc(Cl)c(Cl)c1`, which outcome is on record?
**A.** Its outcome is “inactive”.

**Q.** Which outcome does the source give for `CC(C)CN(N=O)C(=N)N[N+](=O)[O-]` here?
**A.** The outcome was “inactive”.

**Q.** With `COc1ccc(C(c2ccc(OC)cc2)C(Cl)(Cl)Cl)cc1` as the compound, how does the outcome read?
**A.** The outcome was “inactive; active”.

**Q.** With `CC(N)=S` as the compound, how does the outcome read?
**A.** The outcome was “active”.

**Q.** Which outcome does the source give for `CN(N=O)c1ncnc2c1ncn2[C@@H]1O[C@H](CO)[C@@H](O)[C@H]1O` here?
**A.** Its outcome is “active”.

**Q.** For `CC1CN(N=O)CC(C)N1N=O` (configuration not stated), which outcome is on record?
**A.** The outcome was “active”.

**Q.** With `Cc1cc(C(C)(C)C)c(O)c(C(C)(C)C)c1` as the compound, how does the outcome read?
**A.** Its outcome is “active”.

**Q.** With `O=NN1CC=CCC1` as the compound, how does the outcome read?
**A.** The outcome was “active”.

**Q.** Which outcome does the source give for `FC(F)(F)CCl` here?
**A.** Its outcome is “active; inactive”.

**Q.** For `COc1cccc2c1cc([N+](=O)[O-])c1c(C(=O)O)cc3c(c12)OCO3`, which outcome is on record?
**A.** The outcome was “active; inactive”.

**Q.** Which outcome does the source give for `O=S(=O)(O)c1ccc2c(N=Nc3ccc(S(=O)(=O)O)c4ccccc34)c(O)c(S(=O)(=O)O)cc2c1` here?
**A.** Its outcome is “active”.

**Q.** Which outcome does the source give for `FCCl` here?
**A.** The outcome was “active”.

**Q.** Which outcome does the source give for `NC(Cc1c[nH]c2ccccc12)C(=O)O` (configuration not stated) here?
**A.** The outcome was “inactive”.

**Q.** For `BrC(Br)Br`, which outcome is on record?
**A.** The outcome was “active; inactive”.

**Q.** With `Cn1c(=O)c2c(ncn2C)n(C)c1=O` as the compound, how does the outcome read?
**A.** Its outcome is “inactive”.

**Q.** For `ClC#CCl`, which outcome is on record?
**A.** The outcome was “active”.

**Q.** Which outcome does the source give for `O=S(=O)(O)CCS` here?
**A.** Its outcome is “inactive; active”.

**Q.** With `Nc1nc(N)nc(-c2ccccc2)n1` as the compound, how does the outcome read?
**A.** Its outcome is “inactive; active”.

**Q.** Which outcome does the source give for `COc1cc2c(c3oc(=O)c4c(c13)CCC4=O)C1C=COC1O2` (configuration not stated) here?
**A.** The outcome was “active”.

**Q.** For `CC(=O)N(O)c1ccc2c(c1)Cc1ccccc1-2`, which outcome is on record?
**A.** The outcome was “active; inactive”.

**Q.** For `CC(C)COC(=O)c1ccc(O)cc1`, which outcome is on record?
**A.** The outcome was “inactive”.

**Q.** Which outcome does the source give for `ClC1=C(Cl)[C@]2(Cl)[C@@H]3[C@H]4C[C@H]([C@@H]5O[C@H]45)[C@@H]3[C@@]1(Cl)C2(Cl)Cl` here?
**A.** Its outcome is “inactive”.

**Q.** Which outcome does the source give for `Cn1cc(C(=O)O)c(=O)c2ccc(/C=C/c3ccc([N+](=O)[O-])o3)nc21` here?
**A.** The outcome was “active; inactive”.

**Q.** Which outcome does the source give for `CN(CCCC(O)c1cccnc1)N=O` (configuration not stated) here?
**A.** The outcome was “active”.

**Q.** For `N=c1ccn2c(n1)O[C@H]1[C@H](O)[C@@H](CO)O[C@H]12`, which outcome is on record?
**A.** Its outcome is “inactive”.

**Q.** With `C=C1CC[C@H](O)C/C1=C/C=C1\CCC[C@]2(C)[C@@H]([C@H](C)CC[C@@H](O)C(C)(C)O)CC[C@@H]12` as the compound, how does the outcome read?
**A.** The outcome was “inactive; active”.

**Q.** Which outcome does the source give for `Nc1ccc(O)c([N+](=O)[O-])c1` here?
**A.** Its outcome is “active”.

**Q.** For `C/C=N/O`, which outcome is on record?
**A.** The outcome was “inactive”.

**Q.** Which outcome does the source give for `CC(=O)Nc1ccc2c(c1)Cc1ccccc1-2` here?
**A.** The outcome was “active”.

**Q.** With `CC1(C)[C@@H](O)CC[C@]2(C)[C@H]3C(=O)C=C4[C@@H]5C[C@@](C)(C(=O)O)CC[C@]5(C)CC[C@@]4(C)[C@]3(C)CC[C@@H]12` as the compound, how does the outcome read?
**A.** Its outcome is “inactive”.

**Q.** Which outcome does the source give for `[Se]` here?
**A.** Its outcome is “inactive”.

**Q.** With `O=S1(=O)N=C(O)c2ccccc21` as the compound, how does the outcome read?
**A.** The outcome was “inactive”.

**Q.** For `CC1(C)C(=O)NC(=O)NC1=O`, which outcome is on record?
**A.** Its outcome is “inactive; active”.

**Q.** Which outcome does the source give for `CCOC(=O)N(CC)N=O` here?
**A.** The outcome was “active; inactive”.

**Q.** For `Cc1ccc(/C(=C\CN2CCCC2)c2ccccn2)cc1`, which outcome is on record?
**A.** Its outcome is “inactive”.

**Q.** For `C1CO1`, which outcome is on record?
**A.** Its outcome is “active”.

**Q.** For `COc1ccc(C(Cl)=C(c2ccc(OC)cc2)c2ccc(OC)cc2)cc1`, which outcome is on record?
**A.** The outcome was “inactive”.

**Q.** For `O=P1(NCCCl)OCCCN1CCCl` (configuration not stated), which outcome is on record?
**A.** Its outcome is “active; inactive”.

**Q.** Which outcome does the source give for `C=CCN(CCO)N=O` here?
**A.** The outcome was “active”.

**Q.** With `CCN(CC)C(=O)c1cccc(C)c1` as the compound, how does the outcome read?
**A.** Its outcome is “inactive”.

**Q.** With `CCCc1ccc2c(c1)OCO2` as the compound, how does the outcome read?
**A.** Its outcome is “active; inactive”.

**Q.** Which outcome does the source give for `COC(=O)C(c1ccccc1)C1CCCCN1` (configuration not stated) here?
**A.** The outcome was “active”.

**Q.** Which outcome does the source give for `O=C(OOC(=O)c1ccccc1)c1ccccc1` here?
**A.** Its outcome is “inactive”.

**Q.** For `O=c1ccc(=O)[nH][nH]1`, which outcome is on record?
**A.** Its outcome is “inactive; active”.

**Q.** With `FC(F)(F)C(Cl)Cl` as the compound, how does the outcome read?
**A.** Its outcome is “active”.
